Test system: larvae of genetically modified amphibians
Assay: Calibration test: fluorescence of genetically modified amphibian larvae exposed to growing estrogen concentrations
Assay type: in vivo
Conditions: FIG. 3
Protocol: A test of calibration of a plant to implement the method according to the invention was carried in order to determine an acceptable threshold value of endocrine disruptors in the treated water. This calibration test also makes it possible to distinguish the natural fluorescence of water and the basal fluorescence of genetically modified aquatic organisms, related to the normal functioning of the genes, from the fluorescence emitted by the same organisms when they detect the presence of an endocrine disrupting and/or toxic and/or genotoxic pollutant. The fluorescence of water and the basal fluorescence of the genetically modified aquatic organisms can be likened to background noise which must be evaluated in order to deduct it from the signal measured in the presence of a pollutant.
The disruptor chosen for example is estrogen which is found in urban wastewater. […] These concentrations have been related to measured intensities of fluorescence.
From a reading of this graph, it can observed that amphibian larvae are sensitive to very low doses of estrogen such as ethinyl-oestradiol (EE2) (2.5×10^−10 mol/L) and emit a detectable and quantifiable intensity of fluorescence. […] This concentration is related with the measured intensity of fluorescence. […]

ethinyl-oestradiol
estrogen concentration leading to a physiological reversal: ≥ 2×10^−9 mol/L
very low dose at which amphibian larvae emit a detectable and quantifiable intensity of fluorescence: 2.5e-10 mol/L

Source: patent publication US9249035B2, “Method and system for treating water in order to reduce its endocrine disrupting effect by means of a living organism” (Veolia Water Solutions & Technologies Support, priority 2012, dated 2016)
